# Source: patent publication US20210223230A1, “Neamine Compositions and Methods of Use Thereof” (President and Fellows of Harvard College, priority 2008, published 2021)
# How the values were obtained:
# [1] = molecular target: T1, AR (Homo sapiens, UniProt P10275, T878A); assay: Nuclear translocation of AR in LNCaP cells by immunofluorescence; assay type: cell-based; conditions: ANG 0.1 μg/ml, 2 h
# T1 construct: in untreated LNCaP cells, AR was diffusely distributed throughout the cytoplasm; endogenous in cells; host or cells: LNCaP
# T1 sequence (P10275 1-920 T878A): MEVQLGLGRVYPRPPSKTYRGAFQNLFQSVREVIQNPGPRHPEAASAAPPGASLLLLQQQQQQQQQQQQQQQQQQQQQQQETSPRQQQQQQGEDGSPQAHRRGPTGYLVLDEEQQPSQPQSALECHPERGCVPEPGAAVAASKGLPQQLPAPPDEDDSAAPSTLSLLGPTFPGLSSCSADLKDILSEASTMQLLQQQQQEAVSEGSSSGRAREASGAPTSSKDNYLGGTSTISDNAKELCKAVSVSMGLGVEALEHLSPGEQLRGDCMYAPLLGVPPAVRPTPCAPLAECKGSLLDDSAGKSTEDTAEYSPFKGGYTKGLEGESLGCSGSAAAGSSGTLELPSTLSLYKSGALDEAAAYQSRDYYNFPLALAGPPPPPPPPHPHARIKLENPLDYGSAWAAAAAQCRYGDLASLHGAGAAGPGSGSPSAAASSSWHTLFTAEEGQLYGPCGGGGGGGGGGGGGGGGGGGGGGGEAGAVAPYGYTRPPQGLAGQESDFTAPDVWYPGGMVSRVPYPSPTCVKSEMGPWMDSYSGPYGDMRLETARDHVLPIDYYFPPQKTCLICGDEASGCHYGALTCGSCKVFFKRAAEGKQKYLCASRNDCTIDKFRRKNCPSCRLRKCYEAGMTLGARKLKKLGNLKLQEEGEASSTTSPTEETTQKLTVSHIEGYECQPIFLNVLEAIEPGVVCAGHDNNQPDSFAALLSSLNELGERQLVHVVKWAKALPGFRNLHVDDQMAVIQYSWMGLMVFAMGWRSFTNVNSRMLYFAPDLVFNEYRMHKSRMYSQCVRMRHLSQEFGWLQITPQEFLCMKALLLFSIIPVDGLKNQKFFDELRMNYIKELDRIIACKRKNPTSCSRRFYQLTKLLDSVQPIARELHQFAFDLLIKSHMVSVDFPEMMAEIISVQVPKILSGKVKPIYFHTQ
# Protocol: FIG. 19 is a four panel figure that depicts a series of photographs showing immunofluorescently labeled LNCaP cells, showing the effect of ANG on nuclear translocation of AR (panels a-d). LNCaP cells were cultured in charcoal/dextran-stripped FBS and phenol red-free medium for 2 days, and incubated with ANG (0.1 μg/ml), DHT (10 nM) or DHT (10 nM)+anti-ANG mAb 26-2F (30 μg/ml) for 2 h. The cells were fixed and stained for AR by immunofluorescence.
# [2] = tested on: LNCaP cells; assay: LNCaP cell proliferation in phenol red-free and steroid-free medium; assay type: cell-based, human; conditions: ANG 0.1 μg/ml, DHT 10 nM
# Protocol: (§1) (a) ANG stimulates LNCaP cell proliferation in the absence of androgens. Cells were culture in phenol red-free and charcoal/dextran-stripped (steroid-free) FBS for 2 day and stimulated with DHT (10 nM), ANG (0.1 μg/ml), or a mixture of the two for the time indicated. (b) Dose dependence. ANG was added to the cells and cultured for 4 days. (c) Anti-ANG mAb 26-2F inhibits DHT-induced cell proliferation. LNCaP cells were stimulated with 10 nM DHT in the presence of 26-2F or a control non-immune IgG for 3 days. (d) ANG over-expression promotes LNCaP proliferation in vitro. The vector control (pCI-Neo) and ANG transfectants (pCI-ANG) were cultured in phenol red-free and steroid-free medium for the time indicated. (e) Xenograft growth in castrated SCID mice. A mixture of 70 μl cell suspension (1×10^6 cells) and 30 μl Matrigel was injected s.c. per mouse (8 per group). The mice were castrated or sham-operated at the same time. Tumors were inspected and measured twice a week and the animals were sacrificed after 8 weeks of observation. (f) Endogenous ANG of LNCaP cells is essential for androgen-induced rRNA transcription. LNCaP cells were cultured in phenol red-free and steroid-free medium and incubated with DHT (10 nM), ANG (0.1 μg/ml), anti-ANG mAb 26-2F (60 μg/ml) or a mixture of DHT and 26-2F for 2 h. […]
# [3] = tested on: 47S rRNA; assay: rRNA transcription in LNCaP cells by Northern blotting; assay type: cell-based, human; conditions: ANG 0.1 μg/ml, 26-2F 60 μg/ml, 2 h
# Protocol: as §1
# [4] = tested on: PIN; assay: Injection of human ANG protein into the ventral prostate of MPAKT mice (cancer invasion); assay type: in vivo; conditions: 50 μg per mouse, 9 weeks-old MPAKT mice, sacrificed 2 weeks later
# Protocol: Human ANG protein, 50 μg per mouse, was injected into the surgically exposed ventral prostate of 9 weeks-old MPAKT mice. The mice were sacrificed 2 weeks later and the prostates were processed for H&E staining. Cells invading outside of the basement membrane are indicated by arrows.
# [5] = tested on: PC-3, PC-3M, and DU-145 cells; assay: Proliferation of androgen-independent prostate cancer cells; assay type: cell-based, human
substance,measurement,setting,value
"ANG: angiogenin, a 14 kDa angiogenic ribonuclease",nuclear translocation of AR in the absence of androgen,[1],stimulated
same,LNCaP cell proliferation in the absence of androgens,[2],stimulates
same,rRNA transcription in LNCaP cells,[3],stimulated
same,animals with micro invasions,[4],2 of the 4
same,effect of exogenously added ANG on cell proliferation,[5],no effect
